Source: US10028949B2, “Parenteral formulations of lipophilic pharmaceutical agents and methods for preparing and using the same” (priority 2011, dated 2018)

Columns and labels:
[1] = tested on: human myeloid leukemia cell lines KBM-3 and KBM-7/B5, as well as the OCI-AML3; assay: In vitro cytotoxicity of busulfan, MTT assay; assay type: cell-based; details: compared with Bu dissolved in DMSO (positive control)
Method: The cytotoxic potential of the selected preferred solvent systems with and without Bu was determined against the human myeloid leukemia cell lines KBM-3 and KBM-7/B5, as well as the OCI-AML3 (Andersson et al., 1993; Andersson et al., 1987; Andersson et al., 1995; Wang et al., 1991). Briefly, continuously growing cells were exposed to drug, and then pelleted, after which they were resuspended in complete cell culture medium at 2×10^5/mL and aliquoted (20,000/well) in 96-well plates, incubated at 37° C. for 4 days, and analyzed by the MTT assay (Mosmann, 1983). Graphical analyses including calculations of IC50 and charting of survival were done using Prism 4 (GraphPad Software, Inc., San Diego, Calif.). Cells exposed in parallel to solvent system and medium alone served as negative controls, and cells exposed to […] (final concentration 0.08% v/v) served as a positive control for a comparison of cytotoxic action with the DMA-Bu formulation.

[2] = physchem; details: thermodynamic from solid

For `CS(=O)(=O)OCCCCOS(C)(=O)=O` [Busulfan, 1,4-butanediol dimethanesulfonate], the cytotoxic activity [1] was “retained full cytotoxic activity”, the solubility at 60 minutes ([2]; aqueous buffer, Solubility (mg/mL), Solvent: HCl 6 N, room temperature) was 700 µg/mL and the solubility at 60 minutes ([2]; aqueous with cosolvent or surfactant or cyclodextrin, Solubility (mg/mL), Solvent: PEG:water 1:1, room temperature) was 250 µg/mL. It also gave a solubility at 60 minutes ([2]; aqueous with cosolvent or surfactant or cyclodextrin, Solubility (mg/mL), Solvent: PEG:water 1:2, room temperature) of 190 µg/mL, a Solubility ([2]; organic solvent or mixture) of 16400 µg/mL and a solubility at 60 minutes ([2]; organic solvent or mixture) of ~16000 µg/mL. It also gave a solubility at 60 minutes ([2]; organic solvent or mixture, Solubility (mg/mL), Solvent: Acetic acid, room temperature) of 3800 µg/mL, a solubility at 60 minutes ([2]; organic solvent or mixture, Solubility (mg/mL), Solvent: Ethanol, room temperature) of 300 µg/mL and a solubility at 60 minutes ([2]; organic solvent or mixture, Solubility (mg/mL), Solvent: PEG (−400), room temperature) of 200 µg/mL. It also gave a solubility at 60 minutes ([2]; organic solvent or mixture, Solubility (mg/mL), Solvent: Propylene glycol, room temperature) of 200 µg/mL.
